Tests used:
[1] = Superoxide anion radical scavenging assay (xanthine/xanthine oxidase, NBT); format: biochemical; conditions: isolates and standards; mean ± SD, n = 3; read-out: Antioxidant Activity (IC50) Superoxide Anion Radical
Source text: Superoxide anion radical scavenging assay.

[2] = DPPH radical scavenging assay; conditions: read-out: Antioxidant Activity (IC50) DPPH, isolates and standards, mean ± SD, n = 3
Procedure: As positive controls, ascorbic acid, quercetin, resveratrol, and Trolox were employed. Triplicate measurements were performed for each sample, and the mean values were determined.
DPPH radical scavenging assay.
The extracts and isolates were dissolved in dimethyl sulfoxide (DMSO) at concentrations
ranging from 0.1 to 10 mg/mL and 0.1 to 10 mM, respectively. Subsequently, they were
combined with an ethanol solution of DPPH (100 μM). The DPPH solution (190 μL per well)
and the samples (10 μL per well) were incubated in a 96-well microplate at 37 °C for 30 minutes
under dark conditions. The absorbance at 515 nm was quantified using a microplate reader, and
the percentage inhibition (%) of each sample was calculated by comparing it with the control
group treated with DMSO. Linear regression analysis was employed to estimate the IC50 values,
which indicated the concentration of test samples required to inhibit 50% of the free radicals.

[3] = biological target: T1, HMG-CoA reductase (HMGR) (Homo sapiens, UniProt P04035); assay: HMG-CoA reductase (HMGR) inhibition assay, NADPH oxidation at 340 nm; format: biochemical
T1 sequence (P04035 426-888 limits assumed): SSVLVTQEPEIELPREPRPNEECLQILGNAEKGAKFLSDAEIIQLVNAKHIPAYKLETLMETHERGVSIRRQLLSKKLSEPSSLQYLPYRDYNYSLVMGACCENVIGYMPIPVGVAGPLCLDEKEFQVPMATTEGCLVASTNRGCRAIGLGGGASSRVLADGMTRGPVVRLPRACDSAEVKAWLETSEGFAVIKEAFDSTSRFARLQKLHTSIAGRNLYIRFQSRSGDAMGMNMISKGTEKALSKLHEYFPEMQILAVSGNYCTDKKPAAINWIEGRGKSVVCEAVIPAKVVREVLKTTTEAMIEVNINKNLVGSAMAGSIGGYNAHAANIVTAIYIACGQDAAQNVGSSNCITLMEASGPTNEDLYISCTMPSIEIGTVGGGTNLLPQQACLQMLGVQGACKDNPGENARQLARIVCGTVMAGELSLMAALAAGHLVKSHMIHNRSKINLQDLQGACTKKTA
Procedure: The HMGR activity assay was optimized using a 96-well microplate reader to measure nicotinamide adenine dinucleotide phosphate (NADPH) oxidation during enzyme turnover. Each well was loaded with a mixture comprising 89 μL of 50 mM sodium phosphate buffer (pH 6.8), 0.8 mM NADPH, and 2 μg of the enzyme (2–8 units/mg). To initiate the reaction, 1 μL of the test sample and 10 μL of 0.8 mM HMG-CoA were introduced to the well. […] The activity of HMGR was assessed by monitoring the reduction in NADPH absorbance at 340 nm for a duration of 900 s at 37 °C.

[4] = system: lipid peroxidation in liver homogenate; assay: Inhibitory effect on lipid peroxidation (LPO) in liver homogenate, TBARS; format: biochemical, Sprague Dawley rats; conditions: isolates and standards; rat liver homogenate; mean ± SD, n = 3; read-out: Antioxidant Activity (IC50) LPO
Source text: Assay for inhibitory effect of lipid peroxidation. Male Sprague Dawley rats were used in the […]
Technology (approval number: […]-2018-081). Experimental animals were […]
anesthetized with isoflurane and dissected. A 0.15 M ice-cold KCl solution was perfused through the liver portal vein to remove blood from the liver and extract the liver. The liver was homogenized in KCl solution at 10 times the liver’s weight , and the protein concentration was quantified by the Bradford protein method using bovine serum albumin as a standard. A lipid peroxidation test was performed using a slightly modified version of the method described.
Reaction mixtures consisted of 300 μL of liver ho mogenate (11 mg protein/mL) , 300 μL of 50 mM Tris -HCl buffer (pH 7.5) containing 10 μM FeSO 4, and 0.4 mM ascorbic acid. Test samples (10 μL) or DMSO blanks were added to the reaction mixture and incubated at 37 °C for 30 min. After incubation, lipid peroxidation was measured by forming thiobarbituric acid reactive substance s. The mixture was subjected to a reaction at 90 °C for 30 min, followed by cooling and subsequent centrifugation (5,000 × g) for 10 min. The absorbance of the resulting supernatant was d etermined at 535 nm, and the percentage of lipid peroxidation inhibition by the sample was computed. DMSO was utilized as a control instead of the test drug, and the […]

[5] = system: THP-1 macrophage foam cells; assay: ox-LDL-induced macrophage foam cell formation, Oil Red O staining; format: cell-based; conditions: Homo sapiens, 50 μg/mL ox-LDL, 16 h, positive control, read-out: Inhibitory effect on foam cell formation
Procedure: This approach aimed to examine the impact of these substances on lipid accumulation and the formation of foam cells. First, we observed the effects of different concentrations (20, 40, and 60 μg/mL) of the solvent extracts on the THP-1 macrophage activity. […] As a result, we selected and optimized the concentration of 50 μg/mL for the solvent extract to be used in the subsequent experiments. […] Following the extraction of the intracellular dye using isopropanol, a quantitative assessment of the intracellular lipid content was conducted.
THP-1 cells (ATCC, TIB-202, Manassas, VA, USA) were obtained and maintained in RPMI-1640 medium (Cytiva, UT, USA), supplemented with 10% fetal bovine serum (FBS; Hyclone, Cytiva, Logan, UT, USA), penicillin (100 U/mL), streptomycin (100 μg/mL), and 2-mercaptoethanol (Sigma-Aldrich, Saint Louis, MO, USA) at a final concentration of 0.05 mM. The cells were cultured at 37 °C in a 5% CO2 atmosphere with humidity. The THP-1 cells in the suspension were treated with 50 nM phorbol-12-myristate-13-acetate (Sigma-Aldrich, USA) for 48 h. […]
THP-1 cells were seeded in 24-well plates at a density of 5 × 10^5 cells/mL and pretreated as described above. […] The absorbance at 450 nm was measured using a multi-plate reader (Synergy Neo, BioTek Instruments, Inc., Winooski, VT, USA) and statistically processed.

| Compound | IC50 [1] [µM] | IC50 [2] [µM] | IC50 [3] [µM] | IC50 [4] [µM] | HMGR inhibition, result in words [3] | IC50 ([2]; listed as quercetin) [µM] | inhibition at 5 µM [5] [%] |
| --- | --- | --- | --- | --- | --- | --- | --- |
| COC(=O)c1cc(O)c(O)c(O)c1Oc1cc2c(c(O)c1O)-c1c(cc(O)c(O)c1O)C(=O)OC1C(COC2=O)OC(O)C(OC(=O)c2cc(O)c(O)c(O)c2)C1OC(=O)c1cc(O)c(O)c(O)c1 (stereo not shown) [Compound 1, Rugosin B methyl ester] | 4.29 ± 0.23 | 3.62 ± 0.57 | 1.46 ± 0.22 | 3.54 ± 0.29 | – | – | – |
| O=C(OC1C(O)OC2COC(=O)c3cc(Oc4c(C(=O)O)cc(O)c(O)c4O)c(O)c(O)c3-c3c(cc(O)c(O)c3O)C(=O)OC2C1OC(=O)c1cc(O)c(O)c(O)c1)c1cc(O)c(O)c(O)c1 (stereo not shown) [Compound 2, rugosin B] | 5.53 ± 0.21 | 3 ± 0.08 | 17.7 ± 0.04 | 6.02 ± 0.14 | – | – | – |
| COC(=O)c1cc(O)c(O)c(O)c1Oc1cc2c(c(O)c1O)-c1c(cc(O)c(O)c1O)C(=O)O[C@H]1[C@H](OC(=O)c3cc(O)c(O)c(O)c3)[C@@H](OC(=O)c3cc(O)c(O)c(O)c3)[C@H](OC(=O)c3cc(O)c(O)c(O)c3)O[C@@H]1COC2=O [Compound 3, rugosin A methyl ester] | 4.25 ± 0.11 | 4.27 ± 0.45 | 8.4 ± 0.84 | 3.83 ± 0.52 | – | – | – |
| O=C(O[C@@H]1O[C@@H]2COC(=O)c3cc(Oc4c(C(=O)O)cc(O)c(O)c4O)c(O)c(O)c3-c3c(cc(O)c(O)c3O)C(=O)O[C@H]2[C@H](OC(=O)c2cc(O)c(O)c(O)c2)[C@H]1OC(=O)c1cc(O)c(O)c(O)c1)c1cc(O)c(O)c(O)c1 [Compound 4, rugosin A] | 3.21 ± 0.05 | 3.19 ± 0.13 | 12.2 ± 0.5 | 3.75 ± 0.52 | – | – | – |
| O=C(O[C@@H]1O[C@@H]2COC(=O)c3cc(O)c(O)c(O)c3-c3c(cc(O)c(O)c3O)C(=O)O[C@H]2[C@H](OC(=O)c2cc(O)c(O)c(O)c2)[C@H]1OC(=O)c1cc(O)c(O)c(O)c1)c1cc(O)c(O)c(O)c1 [Compound 5, eugeniin] | 4.75 ± 0.14 | 4.34 ± 0.17 | 26.7 ± 0.9 | 3.61 ± 0.34 | – | – | – |
| O=C(OC1C(O)OC2COC(=O)c3cc(O)c(O)c(O)c3-c3c(cc(O)c(O)c3O)C(=O)OC2C1OC(=O)c1cc(O)c(O)c(O)c1)c1cc(O)c(O)c(O)c1 (stereo not shown) [Compound 6, tellimagrandin I] | 4.1 ± 0.53 | 4.7 ± 0.14 | > 50 | 3.93 ± 0.53 | – | – | – |
| O=C(OC[C@H]1O[C@@H](OC(=O)c2cc(O)c(O)c(O)c2)[C@H](OC(=O)c2cc(O)c(O)c(O)c2)[C@@H](OC(=O)c2cc(O)c(O)c(O)c2)[C@@H]1OC(=O)c1cc(O)c(O)c(O)c1)c1cc(O)c(O)c(O)c1 [Compound 7, 1,2,3,4,6-penta-O-galloyl-β-D-glucose] | 4.47 ± 0.07 | 3.81 ± 0.19 | 4.98 ± 0.18 | 3.87 ± 0.61 | – | – | – |
| CC[C@H](C)C(=O)O[C@H]1C[C@H](O)C=C2C=C[C@H](C)[C@H](CC[C@@H](O)C[C@@H](O)CC(=O)O)[C@H]21 [Pravastatin] | – | – | – | – | – | – | 77 |
| Cc1c(C)c2c(c(C)c1O)CCC(C)(C(=O)O)O2 (stereo not shown) [Trolox, reference compound] | > 50 | 31.3 ± 1.27 | – | 33.2 ± 3.6 | – | – | – |
| O=C1O[C@H]([C@@H](O)CO)C(O)=C1O [Vitamin C, ascorbic acid, reference compound] | > 50 | 31.7 ± 0.21 | – | – | – | – | – |

The next lines start with results.

| IC50 [1] [µM] | IC50 [2] [µM] | IC50 [3] [µM] | IC50 [4] [µM] | HMGR inhibition, result in words [3] | IC50 ([2]; listed as quercetin) [µM] | Compound | inhibition at 5 µM [5] [%] |
| --- | --- | --- | --- | --- | --- | --- | --- |
| 3.6 ± 0.23 | 20.9 ± 0.98 | 13.8 ± 1.53 | 3.54 ± 0.15 | – | – | O=C(OC[C@H]1OC(O)[C@H](OC(=O)c2cc(O)c(O)c(O)c2)[C@@H](OC(=O)c2cc(O)c(O)c(O)c2)[C@@H]1OC(=O)c1cc(O)c(O)c(O)c1)c1cc(O)c(O)c(O)c1 (stereo partly drawn) [Compound 8, 2,3,4,6-tetra-O-galloyl-D-glucose] | – |
| 4.64 ± 0.45 | 3.94 ± 0.25 | 41.5 ± 3.9 | 5.88 ± 0.13 | weak effect | – | O=C(OC[C@H]1O[C@@H](OC(=O)c2cc(O)c(O)c(O)c2)[C@H](OC(=O)c2cc(O)c(O)c(O)c2)[C@@H](OC(=O)c2cc(O)c(O)c(O)c2)[C@@H]1O)c1cc(O)c(O)c(O)c1 [Compound 9, 1,2,3,6-tetra-O-galloyl-β-D-glucose] | – |
| 21.5 ± 2.03 | 15.7 ± 0.15 | > 50 | 34.1 ± 2.98 | – | – | O=C(O)[C@H]1O[C@@H](Oc2c(-c3ccc(O)c(O)c3)oc3cc(O)cc(O)c3c2=O)[C@H](O)[C@@H](O)[C@@H]1O [Compound 10, quercetin 3-glucuronic acid] | – |
| 17.7 ± 0.3 | 23 ± 0.45 | > 50 | > 50 | – | – | O=C(O)[C@H]1O[C@@H](Oc2c(O)cc(O)c3c(=O)c(O)c(-c4ccc(O)cc4)oc23)[C@H](O)[C@@H](O)[C@@H]1O [Compound 11, kaempferol 8-O-glucuronic acid] | – |
| 21.3 ± 0.34 | 17.3 ± 1.09 | – | 7.45 ± 1.33 | – | 42.1 | O=c1c(O)c(-c2ccc(O)c(O)c2)oc2cc(O)cc(O)c12 [Quercetin, reference compound] | – |
| > 50 | 42.1 ± 1.91 | – | 47.6 ± 6.35 | – | – | Oc1ccc(/C=C/c2cc(O)cc(O)c2)cc1 [Resveratrol, reference compound] | – |
